Structures can show the parent of a compound that is named as a salt.
Assays:
astrocytes [1] = experiment: Intracellular glycogen quantification; format: cell-based, mouse; details: Prestwick hits; 10 uM, 3 h
Description: For glycogen dosage, a protein dosage was first performed in order to assess whether harvested astrocytes from primary cell cultures yielded enough and equivalent amounts of proteins comparing each replicate, and to ensure that the obtained differences in glycogen quantities were due to drug action and not to inner protein quantities.
Astrocytes used for these dosages were previously grown in 6-well plates for 17 days and stimulated with Vehicle (DMSO) or drug of interest (1 μM to 100 μM) for 180 min, at 37° C. 5% CO2/95% air in D5030 complete medium. Medium was removed and replaced with 600 μl of 30 mM Tris HCl, and stored at −20° C.
Proteins were dosed using the micro BCA Protein Assay kit (Thermo Scientific), as described in the manufacturer's instructions. Briefly, thawed cells were sonicated and 5 μl aliquots were placed in a transparent 96-well plate, to which we added 25 μl 30 mM Tris HCl, 70 μl H2O and 100 μl of a BCA mix (made as described in manufacturer's guidelines). After a 120 min-incubation at 37° C., absorbance was measured with Safire 2 spectrophotometer at a wavelength of 562 nm, and protein quantities were determined from a standard curve of Bovine Serum Albumin (BSA).
Glycogen was quantified using a 250 μl-aliquot of the same stimulated, thawed, and sonicated cells. After an incubation period of 30 min at 90° C. and 400 rpm, 28 μl of an acetic acid/sodium acetate (both from Sigma) 0.1M pH 4.6 buffer was added to each aliquot, which was then separated in two. Each split aliquot received whether 5 μl of amyloglucosidase (Roche) or 5 μl H2O, and all cell solutions were incubated for 120 min in a shaking 37° C.-waterbath. After a centrifugation at 16'000 G for 5 min, 20 μl of supernatant were placed 96-well plate, to which 150 μl of a mix containing 0.67 mM ATP (Roche), 0.67 mM NADP (Roche), 1.8% hexokinase/glucose-6-phosphate dehydrogenase (Roche) and 0.1M Tris Buffer-HCl/3.3 mM magnesium (Fluka)/pH 8.1 buffer was added. Fluorescence was measured with Safire 2 spectrophotometer (340 nm excitation/440 nm emission). Glycogen concentration was obtained by subtracting glucose value of samples with amyloglucosidase to samples without amyloglucosidase, and were expressed relative to the amount of proteins previously determined.
Levels of intracellular glycogen in astrocytes were measured at 3 h after stimulation with 20 hits from the Prestwick library (10 μM each), as shown in FIG. 2. n=6-10; Ctrl pos. is glutamate (0.5 mM). Statistical analysis consisted in ANOVA followed by Fisher LSD post-hoc test for pair-wise comparisons.
Statistical analysis consisted in ANOVA followed by Fisher LSD post-hoc test for pair-wise comparisons.

C57Bl/6 female mice = details: 100 mg/kg single per os, 14 days monitoring
Description: The compound was administered at 10 mg/kg.
In vivo acute toxicity was assessed with a starting maximal concentration of 100 mg/kg. […] Groups of 6-8 female mice were monitored for 14 days after single oral administration of the drug, weighted every day, and a macroscopic histological examination was performed at the end of the experiment. Clinical evaluation included the observation of mice' ability to feed, hydrate, notification of any visible pain, unusual grooming or respiration, blood loss, evidence of microbial infection, and/or significant loss of weight.
For this period, mice were weighted and clinically monitored (feeding, hydration, pain, grooming, respiration, blood loss, microbial infection). At the end of the 14-day evaluation, mice were sacrificed and high level organ analysis was performed. Drugs were always administered per os (gavage) in solution composed of Methocel 4KM 0.4%, Tween 0.25%.

cerebral glycogen = experiment: In vivo pharmacodynamics: glycogen levels in prefrontal cortex; set-up: species or system mouse; details: 10 mg/kg
Source text: To measure intracerebral levels of glycogen, mice were euthanized at different time points after drug administration, using a microwave beam (1 sec, 6 kW) focused directly on mice brains. This method of fixation results in the rapid inhibition of enzymatic reactions, thereby preserving intact metabolic state in the brain of euthanized animals. Glycogen concentration was quantified using standard biochemical procedure. Groups of 8 male mice were used for each condition.
Glycogen levels were measured in microwave-fixed PFC (prefrontal cortex, 6 kW, 1 sec), which ensures enzymatic inhibition and stops glycogen degradation. Samples were then flash frozen before dosage.
First, glycogen levels were analyzed at 1 h, 3 h and 6 h after drug administration. […] This time point was subsequently used for dose-response experiments. Glycogen levels were quantified at 3H after administration with GP-01 to GP-07 at 1, 10 or 100 mg/kg.

[2] = system: C57Bl/6 male and female mice; experiment: In vivo chronic toxicity (28 days); details: chronic administration 10 mg/kg; treatment interrupted
Description: During this period, clinical symptoms and weight were recorded.
Chronic toxicity was assessed.

[3] = system: C57Bl/6 male and female mice; experiment: Anxiety in elevated plus maze (EPM) after chronic treatment; format: in vivo, mouse; details: end of 28-day chronic treatment, 10 mg/kg
Description: Total distance, frequency of entry and duration in the open arms were measured using Ethovision automatic scoring; n>10;

[4] = system: cerebral extracellular lactate; experiment: In vivo pharmacodynamics: lactate biosensors in cortex; set-up: species or system mouse; details: 10 mg/kg per os
Description: Extracellular levels of lactate were monitored in vivo using lactate biosensors (Pinnacle Technology), according to the manufacturer's instructions. Cannulae were surgically implanted in mice cerebral cerebral motor cortex areas M1/M2 (coordinates: +1.94 mm (to bregma), lateral −1.4 mm (to mideline), ventral −1.0 mm (to dura)) 5-7 days before administration of the compounds. Drugs were administered per os as previously described, and cerebral levels of extracellular lactate were dynamically recorded for 6 hours. Mice were administered vehicle alone first, followed 3 hours later by vehicle or drug (10 or 100 mg/kg). Area Under the Curve (AUC) quantifying the fluctuations of extracellular lactate concentrations for each of the compound tested was calculated using Graphad Prism and the ratio of AUC after drug over Vehicle administration was calculated. Groups of 8 male mice were used for each condition.
To measure biological effect of lead molecules in vivo in the brain, lactate levels were quantified after administration of the drug by using lactate biosensors implanted in the cortex of freely moving mice.

primary astrocytes = experiment: Intracellular glycogen quantification, Example 2; format: cell-based, mouse; details: 10 μM, 3 h (GP-0157: 0.1, 1, 10 μM)
Description: To assess for the effect of the compounds of the invention, those were tested in primary astrocytes, as described below. Secretion of lactate was measured directly in the extracellular medium, and indirectly through the acidification of extracellular medium using extracellular pH sensor SNARE-5F-(AND-6)-CAR (SNARF5). Glucose uptake was measured by quantification 2-deoxyglucose in the cell. Cell Cultures Primary cultures of cerebrocortical astrocytes were obtained from 1 to 2-day-old OF1 mouse pups (Charles River). Briefly, cortices were isolated and minced in small pieces under a dissecting microscope. The cells were incubated for 30 min at 37° C. in a solution containing 20 U/ml papain, 1 mM L-cysteine and 10 kU/ml DNase I. After dissociation, papain activity was stopped by the addition of fetal calf serum (FCS). Single-cell suspension was then obtained by mechanical dissociation, which consisted in cells trituration in a DMEM D7777 medium supplemented with 44 mm NaHCO3, 10 ml/L antibiotic/antimycotic solution and 10% FCS. The cells were seeded at an average density of ˜10'000 cells/cm2 on poly-D-lysine coated 96- or 12-well culture plates, depending on their use, and grown in DMEM D7777 medium supplemented with 44 mm NaHCO3, 10 ml/L antibiotic/antimycotic solution and 10% FCS at 37° C. in a humidified atmosphere containing 5% CO2/95% air. Culture medium was renewed twice a week. Cells were stimulated and harvested between DIV14 and DIV17, when confluence and cell growth were optimal. Extracellular Medium Acidification (SNARF5) Secretion of lactate was measured indirectly through the acidification of extracellular medium using extracellular pH sensor […] (SNARF5). After washing cells twice with stimulation medium (DMEM (D5030, Sigma), 1 mM NaHCO2, and 5 mM Glucose, pH 7.4) at 37° C., cells were stimulated with compounds at a final concentration ranging from 10 nM to 30 μM in 50 μl per well of stimulation medium supplemented with 10 μM of SNARF5 (Life Technologies Corporation). Each compound was tested in two different plates for duplicates. After 90 min stimulation, fluorescence was read at exc. (excitation) 480 nm/emm. (emission) 580 nm and at exc 480 nm/emm. 630 nm. The ratio of fluorescence between 630 nm and 580 emission values, which is proportional to extracellular pH, was calculated. In each plate, 8 wells were used for negative controls (DMSO 0.1%) and 8 wells were used for positive controls (CCCP 2 μM in DMSO). The extracellular medium acidification in primary mouse astrocytes treated with GP-A1 was quantified (FIG. 13). Extracellular medium acidification was measured over a period of 1.5 h and 3 h. […] Extracellular Lactate Quantification Secretion of L-lactate was measured in the extracellular medium of 96-well plated astrocytes after 90 min stimulation (at 37° C., in 5% CO2/95% air conditions) with Vehicle (DMSO), the compounds of the invention (100 nM to 100 μM) or positive control. […] Stimulation medium was composed of D5030 medium complemented with 5 mM D-glucose and 44 mM sodium bicarbonate, pH 7.2. To quantify lactate concentrations in the extracellular medium, 200 μl of a 0.2M Glycine-semicarbazide buffer (pH 10) containing 3 mM NAD and 14 U/ml LDH was added to each well of a 96-well plate containing 30 μl aliquots of extracellular medium. Samples were incubated at 37° C. for 1 h. Fluorescence intensity (340 nm excitation/450 nm emission), which represents the amount of NADH produced, was measured, and lactate concentration values were determined relative to a standard curve of L-lactate concentrations. The release of lactate from primary mouse astrocytes treated with GP-A1 was quantified (FIG. 5A and FIG. 14). Accumulation of lactate in the extracellular medium was measured over a period of 1.5 h. […] Intracellular Glycogen Quantification Astrocytes grown on 12-well plates were used for intracellular glycogen quantifications. […]

astrocytes [5] = experiment: Intracellular glycogen quantification; format: cell-based, mouse; details: CDC54K hits; 10 uM, 3 h

SMILES | Glycogen (statistical significance of glycogen degradation) (astrocytes [1]) | acute toxicity (toxic or not) (C57Bl/6 female mice) | PD effect (cerebral glycogen) | weight loss [2] | anxiety in EPM [3] | cerebral lactate (AUC ratio vs vehicle) [4] | mobilization of intracellular glycogen (primary astrocytes) | Glycogen (statistical significance of glycogen degradation) (astrocytes [5])
[H]/N=C(\N/C(=N/[H])Nc1ccc(Cl)cc1)NC(C)C [Proguanil hydrochloride] | *** (***p<0.001) | toxic | did not show good PD effect |  |  |  |  | 
C#C[C@]1(O)CC[C@H]2[C@@H]3[C@H](C)CC4=C(CCC(=O)C4)[C@H]3CC[C@@]21C [Tibolone] | *** (***p<0.001) |  |  | > 20% | increased anxiety | Significant increase |  | 
O=S(=O)(Nc1cc(F)cc(F)c1)c1ccc2ccccc2c1 [T5884038] |  |  |  |  |  |  | significantly enhance the mobilization of intracellular glycogen | **** (****p<0.0001)
